According to the SangsterLogP compilation:

assay: method code SF-AS, from DOI: 10.1016/0223-5234(89)90056-1; conditions: pH 7.4

logD	SMILES
-0.15	O=C(Cn1cc([N+](=O)[O-])c2cccnc21)NCCCN1CCOCC1
-0.23	O=[N+]([O-])c1c[nH]c2nccnc12
0.57	CCOC(=O)Cn1cc([N+](=O)[O-])c2cccnc21
-0.52	O=C(Cn1cccc2c([N+](=O)[O-])cnc1-2)NCCCN1CCOCC1
-0.09	COc1nc2c(c(=O)n(C)c(=O)n2C)n1C
-0.12	CCOC(=O)Cn1cccc2c([N+](=O)[O-])cnc1-2
0.49	Cn1cc([N+](=O)[O-])c2cccnc21
1.95	O=[N+]([O-])c1cn(CCBr)c2ncccc12
-0.19	O=C(Cn1cc([N+](=O)[O-])c2cccnc21)NCCO
-0.28	O=[N+]([O-])c1cn(CC(O)CO)c2ncccc12 (stereo not given)
